{"source": "patent US8183409B2", "about": "“High yield and rapid synthesis methods for producing metallo-organic salts” (Osteologix A/S, priority 2004, dated 2012)", "details": "pH 7.5", "data": [{"smiles": "O=C([O-])/C=C\\C(=O)[O-].[Sr+2]", "note": "[Maleate, strontium maleate]", "values": [{"measurement": "solubility in buffered solution compared with pure water", "result": "decreased solubility"}]}]}
